The target of assay [1] is BRD4 BD1 protein (Homo sapiens (Human), UniProt O60885). The experiment in a line: Fluorescence polarization binding affinity (Ki) with BRD4 BD1 protein. The following applies: fluorescence polarization; Ki calculated from IC50.
Assay [2] deals with multiple myeloma MM.1S cell line. The experiment in a line: Cell viability (CCK-8), multiple myeloma MM.1S. Format: cell-based. The following applies: MM.1S cells, 4 days, CCK-8, 50% inhibition of cell growth. Put shortly: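 Cells (about 3000-5000 per well) exposed to 3-fold serial dilutions of compound for 4 days at 37° C, 5% CO2. CCK-8 added 2-4 h, absorbance at 450 nm, viability normalised to untreated cells after medium-only blank subtraction; IC50 is concentration giving 50% growth inhibition.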

In assay [3] the target is BRD4 BD2 protein (Homo sapiens (Human), UniProt O60885). Kind of assay: Fluorescence polarization binding affinity (Ki) with BRD4 BD2 protein. The arrangement: BRD4 BD2 Ki: reference not given here. To be noted: fluorescence polarization; Ki calculated from IC50.

Where “and” joins values, the source holds several entries; their conditions need not be identical. Identical values can stand only once.

Here are results for 26 compounds from patent publication US12286435B2, “Compound having benzo seven-membered ring structure, preparation method therefor, and use thereof” (BIONNA (BEIJING) MEDICAL TECHNOLOGY CO., LTD., priority 2019, dated 2025).

A word on the Ki: it is a dissociation constant, usually derived from enzyme kinetics or from competition with a known ligand. Broadly, the IC50 is the concentration needed to halve the response being measured. On to `Cc1nnn2c1-c1ccccc1C(Nc1cccc3cnccc13)CC2` (stereo not shown) [LB103, N-(isoquinolin-5-yl)-1-methyl-6,7-dihydro-5H-benzo[c][1,2,3]triazolo [1,5-a]azepin-7-amine], for which the Ki was 607 nM in assay [1] and 95.2 nM in assay [3]. In assay [2] (Homo sapiens, MM1.S, 96 h), the midpoint of inhibition, the IC50, lay at 389 nM.
The like results for `Cc1nnn2c1-c1ccc(-c3cnn(C)c3)cc1C(Nc1ccc3cc[nH]c3c1)CC2` (stereo not shown) [LB113, N-(1H-indo1-6-yl)-1-methyl-9-(1-methyl-1H-pyrazol-4-yl)-6,7-dihydro-5H-benzo[c][1,2,3]triazolo[1,5-a]azepin-7-amine] were, in that order, 38 nM, 7.4 nM and 11.2 nM.
For `Cc1nnn2c1-c1ccc(-c3cnn(C)c3)cc1C(Nc1cccc3[nH]ccc13)CC2` (stereo not shown) [LB114, N-(1H-indo1-4-yl)-1-methyl-9-(1-methyl-1H-pyrazol-4-yl)-6,7-dihydro-5H-benzo[c][1,2,3]triazolo[1,5-a]azepin-7-amine] the same measures were 45.3 nM, 8.8 nM and 1.2 nM.
For `CNC(=O)c1ccc(NC2CCn3nnc(C)c3-c3ccc(-c4cnn(C)c4)cc32)cc1` (stereo not shown) [LB128], the Ki is 89.3 nM in assay [1] and 22.8 nM in assay [3]. In assay [2] (Homo sapiens, MM1.S, 96 h), this compound displayed an IC50 of 153 nM.
Take `Cc1nnn2c1-c1ccc(-c3cnn(C)c3)cc1C(Nc1ccc(CN(C)C)cc1)CC2` (stereo not shown) [LB138, N-(4-((dimethylamino)methyl)phenyl)-1-methyl-9-(1-methyl-1H-pyrazol-4-yl)-6,7-dihydro-5H-benzo[c][1,2,3]triazolo[1,5-a]azepin-7-amine]: the values for the Ki in assay [1] and in assay [3] were 1040 nM and 203 nM, respectively. It took 961 nM to reach half-maximal inhibition in assay [2] (Homo sapiens, MM1.S, 96 h) (IC50).
The like results for `Cc1nnn2c1-c1ccc(-c3cnn(C)c3)cc1C(Nc1ccc(CCN(C)C)cc1)CC2` (stereo not shown) [LB139, N-(4-(2-(dimethylamino)ethyl)phenyl)-1-methyl-9-(1-methyl-1H-pyrazol-4-yl)-6,7-dihydro-5H-benzo[c][1,2,3]triazolo[1,5-a]azepin-7-amine] were, in that order, 124 nM, 48.3 nM and 120 nM.
With `CNC(=O)Cc1ccc(NC2CCn3nnc(C)c3-c3ccc(-c4cnn(C)c4)cc32)cc1` (stereo not shown) [LB142], the Ki in assay [1] is 69 nM; in assay [3] it was 11.4 nM. This compound also had an IC50 in assay [2] of 114 nM.
Turning to `Cc1nnn2c1-c1ccc(-c3cnn(C)c3)cc1C(Nc1ccc(O)cc1)CC2` (stereo not shown) [LB143, 4-((1-methyl-9-(1-methyl-1H-pyrazol-4-yl)-6,7-dihydro-5H-benzo[c][1,2,3]triazolo[1,5-a]azepin-7-yl)amino)phenol], the inhibitory constant (Ki) in assay [1] is 78.3 nM; in assay [3] it was 9.61 nM. Besides, inhibition in assay [2] (Homo sapiens, MM1.S, 96 h) was half-maximal at 118 nM (IC50).
For `Cc1nnn2c1-c1ccc(-c3cnn(C)c3)cc1C(Nc1cccc(N(C)C)c1)CC2` (stereo not shown) [LB152, N^1,N^1-dimethyl-N^3-(1-methyl-9-(1-methyl-1H-pyrazol-4-yl)-6,7-dihydro-5H-benzo[c][1,2,3]triazolo[1,5-a]azepin-7-yl)benzene-1,3-diamine] the same measures were 75.5 nM, 16.7 nM and 26.2 nM.
For `Cc1nnn2c1-c1ccc(-c3cnn(C)c3)cc1C(Nc1ccccc1O)CC2` (stereo not shown) [LB170, 2-((1-methyl-9-(1-methyl-1H-pyrazol-4-yl)-6,7-dihydro-5H-benzo[c][1,2,3]triazolo[1,5-a]azepin-7-yl)amino)phenol] the same measures were 74.8 nM, 4.78 nM and 152 nM.
Turning to `Cc1nnn2c1-c1ccc(-c3cnn(C)c3)cc1C(Nc1cccc(O)c1)CC2` (stereo not shown) [LB171, 3-((1-methyl-9-(1-methyl-1H-pyrazol-4-yl)-6,7-dihydro-5H-benzo[c][1,2,3]triazolo[1,5-a]azepin-7-yl)amino)phenol], the Ki is 26.1 nM in assay [1] and 7.06 nM in assay [3]. Also, the IC50 in assay [2] (Homo sapiens, MM1.S, 96 h) came out at 22.8 nM; in assay [2], 20.8 nM.
Take `Cc1nnn2c1-c1ccc(-c3cnn(C)c3)cc1C(Nc1ccccc1C(=O)O)CC2` (stereo not shown) [LB173, 2-((1-methyl-9-(1-methyl-1H-pyrazol-4-yl)-6,7-dihydro-5H-benzo[c][1,2,3]triazolo[1,5-a]azepin-7-yl)amino)benzoic acid]: the Ki in assay [1] was 179 nM; in assay [3], 32.1 nM. The IC50 in assay [2] (Homo sapiens, MM1.S, 96 h) amounted to 1200 nM.
For `CNC(=O)c1cccc(NC2CCn3nnc(C)c3-c3ccc(-c4cnn(C)c4)cc32)c1` (stereo not shown) [LB181] the same measures were 132 nM, 14.5 nM and 168 nM.
In the case of `Cc1nnn2c1-c1ccc(-c3cnn(C)c3)cc1C(Nc1ccccc1CC(=O)O)CC2` (stereo not shown) [LB185, 2-(2-((1-methyl-9-(1-methyl-1H-pyrazol-4-yl)-6,7-dihydro-5H-benzo[c][1,2,3]triazolo[1,5-a]azepin-7-yl)amino)phenyl)acetic acid], the Ki in assay [1] was 218 nM; in assay [3] it was 14.5 nM. This compound came in with an IC50 in assay [2] (Homo sapiens, MM1.S, 96 h) of 1620 nM.
In the case of `CNC(=O)c1ccccc1NC1CCn2nnc(C)c2-c2ccc(-c3cnn(C)c3)cc21` (stereo not shown) [LB186], the Ki is 82.2 nM in assay [1] and 13.7 nM in assay [3]. Inhibition in assay [2] (Homo sapiens, MM1.S, 96 h) was half-maximal at 36.6 nM (IC50).
As for `Cc1nnn2c1-c1ccc(-c3cnn(C)c3)cc1C(Nc1ccc(F)cc1F)CC2` (stereo not shown) [LC01, N-(2,4-difluorophenyl)-1-methyl-9-(1-methyl-1H-pyrazol-4-yl)-6,7-dihydro-5H-benzo[c][1,2,3]triazolo[1,5-a]azepin-7-amine], the Ki in assay [1] is 56 nM; in assay [3], 28.4 nM and 9.08 nM. The compound further gave a half-maximal inhibitory concentration (IC50) in assay [2] (Homo sapiens, MM1.S, 96 h) of 48.8 nM.
For `Cc1nnn2c1-c1ccc(-c3cnn(C)c3)cc1C(Nc1ccc(CC#N)cc1)CC2` (stereo not shown) [LC03, 2-(4-((1-methyl-9-(1-methyl-1H-pyrazol-4-yl)-6,7-dihydro-5H-benzo[c][1,2,3]triazolo[1,5-a]azepin-7-yl)amino)phenyl)acetonitrile], the Ki in assay [1] was 32.9 nM; in assay [3], 1.33 nM and 4.03 nM. The compound also showed an IC50 in assay [2] (Homo sapiens, MM1.S, 96 h) of 59 nM.
Turning to `Cc1nnn2c1-c1ccc(-c3cnn(C)c3)cc1C(Nc1cccc(C#N)c1)CC2` (stereo not shown) [LC07, 3-((1-methyl-9-(1-methyl-1H-pyrazol-4-yl)-6,7-dihydro-5H-benzo[c][1,2,3]triazolo[1,5-a]azepin-7-yl)amino)benzonitrile], the inhibition constant (Ki) in assay [1] is 134 nM; in assay [3] it was 8.4 nM and 18.8 nM. This compound also had a 50% inhibitory concentration (IC50) in assay [2] (Homo sapiens, MM1.S, 96 h) of 165 nM.
Turning to `Cc1nnn2c1-c1ccc(-c3cnn(C)c3)cc1C(Nc1ccccc1CC#N)CC2` (stereo not shown) [LC09, 2-(2-((1-methyl-9-(1-methyl-1H-pyrazol-4-yl)-6,7-dihydro-5H-benzo[c][1,2,3]triazolo[1,5-a]azepin-7-yl)amino)phenyl)acetonitrile], the Ki in assay [1] is 15.5 nM. This compound also returned a 50% inhibitory concentration (IC50) in assay [2] (Homo sapiens, MM1.S, 96 h) of 39.3 nM. Also, in assay [3], the “BRD4 BD2 Ki” value is given as “<Kd”.
In the case of `Cc1nnn2c1-c1ccc(-c3cnn(C)c3)cc1C(Nc1ccc(C#N)cc1)CC2` (stereo not shown) [LC18, 4-((1-methyl-9-(1-methyl-1H-pyrazol-4-yl)-6,7-dihydro-5H-benzo[c][1,2,3]triazolo[1,5-a]azepin-7-yl)amino)benzonitrile], the Ki in assay [1] is 34.6 nM; in assay [3] it was 15.2 nM. This compound also yielded an IC50 in assay [2] (Homo sapiens, MM1.S, 96 h) of 4.7 nM.
For `Cc1nnn2c1-c1ccc(-c3cnn(C)c3)cc1C(Nc1cccc(CC#N)c1)CC2` (stereo not shown) [LC20, 2-(3-((1-methyl-9-(1-methyl-1H-pyrazol-4-yl)-6,7-dihydro-5H-benzo[c][1,2,3]triazolo[1,5-a]azepin-7-yl)amino)phenyl)acetonitrile] the same measures were 59.6 nM, 15 nM and 25.3 nM.
The like results for `Cc1nnn2c1-c1ccc(-c3cnn(C)c3)cc1C(Nc1ccccc1CN(C)C)CC2` (stereo not shown) [LC29, N-(2-((dimethylamino)methyl)phenyl)-1-methyl-9-(1-methyl-1H-pyrazol-4-yl)-6,7-dihydro-5H-benzo[c][1,2,3]triazolo[1,5-a]azepin-7-amine] were, in that order, 19.4 nM, 7.6 nM and 12.2 nM.
Regarding `Cc1nnn2c1-c1ccc(-c3cnn(C)c3)cc1C(Nc1cccc(CN(C)C)c1)CC2` (stereo not shown) [LC31, N-(3-((dimethylamino)methyl)phenyl)-1-methyl-9-(1-methyl-1H-pyrazol-4-yl)-6,7-dihydro-5H-benzo[c][1,2,3]triazolo[1,5-a]azepin-7-amine], the inhibitory constant (Ki) is 92.6 nM in assay [1] and 20.9 nM in assay [3]. Also, the IC50 in assay [2] (Homo sapiens, MM1.S, 96 h) was 27.9 nM.
The like results for `Cc1nnn2c1-c1ccc(C3=CCNCC3)cc1C(Nc1cccc(OCCO)c1)CC2` (stereo not shown) [LC56, 2-(3-((1-methyl-9-(1,2,3,6-tetrahydropyridin-4-yl)-6,7-dihydro-5H-benzo[c][1,2,3]triazolo[1,5-a]azepin-7-yl)amino)phenoxy)ethan-1-ol 2,2,2-trifluoroacetate] were, in that order, 1520 nM, 70.3 nM and 2890 nM.
With `Cc1nnn2c1-c1ccc(C3=CCNCC3)cc1C(Nc1cccc(Cl)c1)CC2` (stereo not shown) [LC79, N-(3-chlorophenyl)-1-methyl-9-(1,2,3,6-tetrahydropyridin-4-yl)-6,7-dihydro-5H-benzo[c][1,2,3]triazolo[1,5-a]azepin-7-amine 2,2,2-trifluoroacetate], the inhibition constant Ki was 639 nM in assay [1] and 34.2 nM in assay [3]. This compound yielded an IC50 in assay [2] (Homo sapiens, MM1.S, 96 h) of 936 nM.
Regarding `Cc1nnn2c1-c1ccc(C3=CCNCC3)cc1C(Nc1cccc(O)c1)CC2` (stereo not shown) [LC97, 3-((1-methyl-9-(1,2,3,6-tetrahydropyridin-4-yl)-6,7-dihydro-5H-benzo[c][1,2,3]triazolo[1,5-a]azepin-7-yl)amino)phenol 2,2,2-trifluoroacetate], the values for the inhibition constant Ki in assay [1] and in assay [3] were 795 nM and 40.6 nM, respectively. In assay [2] (Homo sapiens, MM1.S, 96 h), the midpoint of inhibition, the IC50, lay at 591 nM.
